The target in the assay is DRB1*1501 (Homo sapiens, UniProt P01903+P01911). The assay is described as follows: biochemical. In kind it is binding.

What is called IC50 is the concentration that gives 50% inhibition. A high value points to lower potency. `CC(C)C[C@H](NC(=O)[C@H](Cc1ccc(O)cc1)NC(=O)[C@H](C)NC(=O)[C@H](CCCNC(=N)N)NC(=O)[C@H](CC(C)C)NC(=O)[C@H](CCC(N)=O)NC(=O)[C@H](CCC(=O)O)NC(=O)[C@H](C)NC(=O)[C@@H](N)CCC(=O)O)C(=O)N[C@@H](CC(=O)O)C(=O)NCC(=O)N[C@H](C(=O)NCC(=O)N[C@H](C(=O)N[C@@H](CCC(=O)O)C(=O)O)C(C)C)[C@@H](C)O` [A3 152–166] showed a half-maximal inhibitory concentration (IC50) of 48 nM.

The values above are taken from article PMC3147111 (European journal of immunology, 2010).
